The values that follow come from patent US20070112061A1, “Heat- or singlet oxygen-generating agents and cancer treatment compositions comprising organic peroxide or chemiluminescent compound” (priority 2004, published 2007).

The test system of data set [1] is established cell line from human large intestine cancer. Nature of the data set: MTT cytotoxicity assay (anticancer effect). It counts as cell-based. Particulars: for viability at 10 µM / viability at 100 µM / viability at 1 µM: Homo sapiens, read-out: Survival rate of cancer cells; for viability at 10 µM / viability at 100 µM / viability at 1 µM / Survival rate of cancer cells: 48 hours incubation; for Survival rate of cells: 100 μM, MTT assay; for anticancer effect compared to MMC: concentration of 100 μM/L. As for the experimental part:
Cytotoxicity was determined as shown below using MTT method proposed by Mosmann et al. (Mosmann, T.; Rapid colorimetric assay for cellular growth and survival: application proliferation and cytotoxicity assays. J. Immunol. Meth. 65: 55-63, 1983). An established cell line from human large intestine cancer was adjusted on a 10% FCS-containing RPMI 1640 culture solution to have 5×10^3 cells/[…], plated in a 96-well microplate, and incubated for 48 hours. Then, the resultant was added with […] of a peroxide, and incubated under a 5% CO2 condition at 37° C. for 48 hours to determine cytotoxicity by MTT assay^1. MTT assay: Upon completion of the incubation, […] of MTT reagent (5 mg/ml in PBS) was added to each well, and then the formazan left on the bottom of the plate was added with 0.04N HCl to dissolve in isopropanol. OD was measured at a test wavelength and at a reference wavelength of 630 nm.
Survival rate in percentage was calculated by the following equation: Survival rate=(OD test value/OD reference value)×100 (%)
Background: Formazan colour is commonly taken as a measure of viable cells.

Data set [2] can be described thus: Solid-state reaction heat by differential thermal analyzer (DSC-50). Particulars: for Solid reaction heat: solid state, heated to 80-180° C. It counts as physicochemical. The procedure: (§1) Measurement of reaction heat: heat generated by above-mentioned compounds was measured by a differential thermal analyzer.
Heat measurement of a chemiluminescent system peroxide in the solid state was conducted using a differential thermal analyzer as follows: 2 to 3 mg of the peroxide was weighed, filled into an aluminum capsule, and heated gradually to 80-180° C. by DSC-50 (Shimadzu Corporation) to measure the generated heat.
Measurement of reaction heat: heat generated from above-mentioned compounds was measured by the differential thermal analyzer in accordance with above-mentioned [Measurement I]. Thermal measurement of a dioxetane compound in the solid state was carried out as follows: 2 to 3 mg of the dioxetane compound was weighed, filled into an aluminum capsule, and heated gradually to 80-180° C. by DSC-50 (Shimadzu Corporation) to measure the generated heat.

Data set [3] can be described thus: Solution reaction heat of chemiluminescent reaction started with 1N KOH/MeOH. It counts as physicochemical. The procedure: Reaction heat and chemiluminescent efficiency relating to chemiluminescent reaction of the peroxides (Chemical formula A to Chemical formula L) were measured. Further, the amount of imidazole formed that indicates generation efficiency of singlet oxygen generated by this reaction was measured.
as §1

On to `OOC1(c2cccc(O)c2)N=C(c2ccccc2)N=C1c1cccc(O)c1` (centres unmarked) [Chemical formula F, 4-Hydroperoxy-4,5-bis(3-hydroxyphenyl)-2-phenyl-4H-isoimidazole], for which the viability at 10 µM in data set [1] (anticancer agent 10 μM/ml) was 87.4%. The viability at 100 µM in data set [1] (anticancer agent 100 μM/ml) worked out at 42.2%.
As for `COc1ccc(C2(OC)OOC23C2CC4CC(C2)CC3C4)cc1` (centres unmarked) [Chemical formula M, 3-(2′-Spiroadamantane)-4-methoxy-4-(4″-methoxy)phenyl-1,2-dioxetane], in data set [1], the “Survival rate of cells” value is on record as 55%. In data set [2] (dioxetanes), this compound displayed a Solid reaction heat of 68.8 kcal/mol.
As for `Nc1ccc(C2=NC(OO)(c3ccccc3)C(c3ccccc3)=N2)cc1` (centres unmarked) [Chemical formula H, 2-(4-Aminophenyl)-4-hydroperoxy-4,5-diphenyl-4H-isoimidazole], the viability at 1 µM in data set [1] (anticancer agent 1 μM/ml) came to 100%. The viability at 10 µM in data set [1] (anticancer agent 10 μM/ml) turned out to be 97.5%. Moreover, in data set [1] (anticancer agent 100 μM/ml), the viability at 100 µM was determined as 87.4%. The same compound displayed a Solid reaction heat in data set [2] (peroxides) of 35.3 kcal/mol. The “Solution Reaction heat” value in data set [3] worked out at 46.0 kcal/mol.
For the compound `CC(C)(C)[Si](C)(C)OOC1(c2ccccc2)N=C(c2ccc(C3=NC(OO[Si](C)(C)C(C)(C)C)(c4ccccc4)C(c4ccccc4)=N3)cc2)N=C1c1ccccc1` (centres unmarked) [Chemical formula P], the generation heat in data set [2] is 147 kcal/mol.
Still for that read-out and setting: then `CC(C)(C)[Si](C)(C)OOC1(c2ccccc2)N=C(c2cccc(C3=NC(OO[Si](C)(C)C(C)(C)C)(c4ccccc4)C(c4ccccc4)=N3)c2)N=C1c1ccccc1` (centres unmarked) [Chemical formula R], with 143 kcal/mol.
Consider `OOC1(c2ccccc2)N=C(c2ccc(O)cc2)N=C1c1ccccc1` (centres unmarked) [Chemical formula C, 4-Hydroperoxy-2-(4-hydroxyphenyl)-4,5-diphenyl-4H-imidazole], for which the melting point was 125 to 127 °C (dec.). The viability at 1 µM in data set [1] (anticancer agent 1 μM/ml) is 91.9%. The viability at 10 µM in data set [1] (anticancer agent 10 μM/ml) stood at 82.2%. The viability at 100 µM in data set [1] (anticancer agent 100 μM/ml) stood at 11.1%. The “anticancer effect compared to MMC” value in data set [1] was “comparable to the commercially available MMC”. In data set [2] (peroxides), this compound displayed a Solid reaction heat of 53.6 kcal/mol.
For `O=[N+]([O-])c1ccc(C2=NC(OO)(c3ccccc3)C(c3ccccc3)=N2)cc1` (centres unmarked) [Chemical formula J], in data set [2] (peroxides), the Solid reaction heat amounted to 52.3 kcal/mol. In data set [3], the “Solution Reaction heat” value is 48.7 kcal/mol.
The like results for `Cc1cc(C)c(C2=NC(OO)(c3ccccc3)C(c3ccccc3)=N2)c(C)c1` (centres unmarked) [Chemical formula L, 4-Hydroperoxy-2-(2′,4′,6′-trimethylphenyl)-4,5-diphenyl-4H-isoimidazole] were, in that order, 50.5 kcal/mol and 54.0 kcal/mol.
Take `COc1cccc(C2(OC)OOC23C2CC4CC(C2)CC3C4)c1` (centres unmarked) [Chemical formula N, 3-(2′-Spiroadamantane)-4-methoxy-4-(3″-methoxy)phenyl-1,2-dioxetane]: the “Survival rate of cells” value in data set [1] stood at 67%. In data set [2] (dioxetanes), the Solid reaction heat amounted to 66.8 kcal/mol.
Regarding `OOC1(c2ccccc2)N=C(c2cccc(C3=NC(OO)(c4ccccc4)C(c4ccccc4)=N3)c2)N=C1c1ccccc1` (centres unmarked) [Chemical formula Q], in data set [2], the generation heat is 30.5 kcal/mol.
Regarding `OOC1(c2ccc3c(c2)OCCOCCOCCOCCO3)N=C(c2ccccc2)N=C1c1ccc2c(c1)OCCOCCOCCOCCO2` (centres unmarked) [Chemical formula G, Bis(crown ether)iophineperoxide], the viability at 10 µM in data set [1] (anticancer agent 10 μM/ml) was 87.2%. Also, the viability at 100 µM in data set [1] (anticancer agent 100 μM/ml) was 48.2%.
With `OOC1(c2ccccc2)N=C(c2ccc(C3=NC(OO)(c4ccccc4)C(c4ccccc4)=N3)cc2)N=C1c1ccccc1` (centres unmarked) [Chemical formula O], the generation heat in data set [2] amounted to 47.1 kcal/mol.
Turning to `CO[C@@]12[C@H](COC(N)=O)C3=C(C(=O)C(C)=C(N)C3=O)N1C[C@@H]1N[C@@H]12` [MMC, mitomycin C, reference compound], the results for the “Survival rate of cancer cells” value in data set [1] (anticancer agent 1 μM/ml), in data set [1] (anticancer agent 10 μM/ml) and in data set [1] (anticancer agent 100 μM/ml) were 65.0%, 28.0% and 14.5%, respectively.
`CN(C)c1ccc(C2=NC(OO)(c3ccc(F)cc3)C(c3ccc(F)cc3)=N2)cc1` (centres unmarked) [Chemical formula B, 4,5-Bis(4-fluorophenyl)-4-hydroperoxy-2-(4-dimethylaminophenyl)-4H-isoimidazole]: the melting point is 125 to 128 °C (dec.). The viability at 1 µM in data set [1] (anticancer agent 1 μM/ml) was determined as 100%. Also, the viability at 10 µM in data set [1] (anticancer agent 10 μM/ml) was 93.7%. The viability at 100 µM in data set [1] (anticancer agent 100 μM/ml) was found to be 37%. The Solid reaction heat in data set [2] (peroxides) came out at 61.0 kcal/mol. For the same compound, the “Solution Reaction heat” value in data set [3] is on record as 66.3 kcal/mol.
`CC(C)(C)[Si](C)(C)OOC1(c2ccccc2)N=C(c2ccccc2)N=C1c1ccccc1` (centres unmarked) [Chemical formula I, 4-t-Butyldimethylsilylperoxy-2,4,5-triphenyl-4H-isoimidazole] showed a melting point of 93.5 to 96 °C. In addition, the viability at 1 µM in data set [1] (anticancer agent 1 μM/ml) was determined as 97.2%. The viability at 10 µM in data set [1] (anticancer agent 10 μM/ml) came to 95.9%. Also, in data set [1] (anticancer agent 100 μM/ml), the viability at 100 µM amounted to 60.6%. Moreover, the Solid reaction heat in data set [2] (peroxides) came to 91.4 kcal/mol.
As to `OOC1(c2ccccc2)N=C(c2cccc(O)c2)N=C1c1ccccc1` (centres unmarked) [Chemical formula D], the viability at 1 µM in data set [1] (anticancer agent 1 μM/ml) was determined as 93.3%. Also, the viability at 10 µM in data set [1] (anticancer agent 10 μM/ml) is 92.2%. In addition, the viability at 100 µM in data set [1] (anticancer agent 100 μM/ml) was found to be 71.2%. The Solid reaction heat in data set [2] (peroxides) worked out at 47.6 kcal/mol.
Take `OOC1(c2ccccc2)N=C(c2ccccc2O)N=C1c1ccccc1` (centres unmarked) [Chemical formula E, 4-Hydroperoxy-2-(2-hydroxyphenyl)-4,5-diphenyl-4H-isoimidazole]: in data set [1] (anticancer agent 10 μM/ml), the viability at 10 µM is 88.1%. For the same compound, the viability at 100 µM in data set [1] (anticancer agent 100 μM/ml) was 11.8%. Moreover, the “anticancer effect compared to MMC” value in data set [1] is given as “comparable to the commercially available MMC”.
On to `O=Cc1ccc(C2=NC(OO)(c3ccccc3)C(c3ccccc3)=N2)cc1` (centres unmarked) [Chemical formula K, 2-(4-Formylphenyl)-4-hydroperoxy-4,5-diphenyl-4H-isoimidazole], for which the Solid reaction heat in data set [2] (peroxides) is recorded as 15.0 kcal/mol. Moreover, the “Solution Reaction heat” value in data set [3] worked out at 22.4 kcal/mol.
Take `OOC1(c2ccccc2)N=C(c2ccccc2)N=C1c1ccccc1` (centres unmarked) [Chemical formula A, 4-Hydroperoxy-2,4,5-triphenyl-4H-isoimidazole]: the melting point was 108 to 110 °C (dec.). Further, in data set [1] (anticancer agent 1 μM/ml), the viability at 1 µM is 100%. In addition, the viability at 10 µM in data set [1] (anticancer agent 10 μM/ml) worked out at 100%. Moreover, the viability at 100 µM in data set [1] (anticancer agent 100 μM/ml) stood at 78.3%. This compound also displayed a Solid reaction heat in data set [2] (peroxides) of 18.7 kcal/mol. In addition, the “Solution Reaction heat” value in data set [3] is 53.8 kcal/mol.

Broadly, the melting point is the temperature, or range, at which the solid turns liquid.
